Results as given in PubChem BioAssay (NCI).
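Compound exposure: 48 hours, 5 concentrations, 96-well plates. At the GI50, growth is halved. TGI: total growth inhibition.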

Columns and labels:
Assay in all cases: NCI anticancer screen, dose series, 48 h
[1] = tested on: DU-145 prostate
[2] = tested on: HCT-15 colon
[3] = tested on: HOP-92 NSCLC
[4] = tested on: KM12 colon
[5] = tested on: NCI-H460 lung
[6] = tested on: NCI/ADR-RES ovarian
[7] = tested on: UO-31 renal
[8] = tested on: ACHN renal
[9] = tested on: SF-295 CNS
[10] = tested on: SNB-19 CNS

Structure (SMILES)	TGI [1] [µM]	TGI [2] [µM]	TGI [3] [µM]	TGI [4] [µM]	TGI [5] [µM]	TGI [6] [µM]	TGI [7] [µM]	TGI [8] [µM]	TGI [9] [µM]	TGI [10] [µM]	GI50 [8] [nM]	GI50 [1] [nM]	GI50 [3] [nM]	GI50 [4] [nM]	GI50 [5] [nM]	GI50 [6] [nM]	GI50 [9] [nM]	GI50 [10] [nM]	GI50 [7] [nM]
O=C1N=C2SC(=S)NC(=S)N2NC12c1ccccc1-c1ccccc12	> 10	> 10	> 10	> 10	> 10	> 10	> 10												
Nc1nc(Cl)cc(NCC2(O)CC2)n1	> 100	> 100	> 100	> 100	> 100	> 100	> 100	> 100	> 100	> 100									
CC[C@H](Nc1nc(C)nc(N)c1C#N)c1nc2cccc(NCc3ccc(C(=O)NO)cc3)c2c(=O)n1-c1ccccc1	4.89		3.07	3.45	3.78	4.69	2.47	3.69	3.14	3.97	1630	2010	1380	1810	1790	1990	1660	1630	1210
N#C/C(=C/n1c(=S)[nH]c2ccc([N+](=O)[O-])cc21)C(N)=O	> 100	> 100	> 100	> 100	> 100	> 100	> 100	> 100	> 100	> 100									
CC(C)N1CC2CC(CN(C(=O)c3ccccc3)C2)C1		> 100	> 100	> 100	> 100		> 100	> 100	> 100	> 100									
Cc1ccc2c(c1)-c1c(C#N)c(N)nc(-c3ccc(Cl)cc3)c1CCS2(=O)=O	> 100	> 100	> 100	> 100	> 100	98.2	> 100	> 100	> 100	> 100									
CCC(CO)Nc1nc(NCc2ccccc2)c2ncn(C(C)C)c2n1 (stereo not drawn)	> 100	> 100	56.2	36.3	> 100	42.3	40.7	> 100	50.9	> 100									
c1ccc2c(c1)Sc1nccc3ccnc-2c13	> 100		> 100	> 100	33.2	> 100	47.6	43.4	> 100	> 100									
Cc1[nH]c(=O)nc(NCCNCCO)c1C(=O)Nc1cccc2cc3ccccc3cc12	> 100	> 100	> 100	> 100	> 100	> 100		> 100	> 100	> 100									
Cc1cc2c(O)c(c1)CN(CC(=O)O)Cc1cc(C)cc(c1O)CN(CC(=O)O)Cc1cc(C)cc(c1O)CN(CC(=O)O)C2	> 100	> 100	> 100	> 100	> 100	> 100	> 100	> 100	> 100	> 100									
C=C1N(C=O)C(C)(C)N(O)C1(C)C	> 100	> 100	> 100	> 100	> 100	> 100	> 100	> 100	> 100	> 100									
CCP(=O)(OC)C1=CCN(C(=O)OCC[Si](C)(C)C)CC1 (stereo not drawn)	> 100	> 100	> 100	> 100	> 100	> 100	> 100	> 100	> 100	> 100									
COc1ccc2nc(/C(N)=C\C#N)ccc2c1	> 100	> 100	> 100	> 100	> 100	> 100	> 100	> 100	> 100	> 100									
COC(=O)C1=C(C(=O)OC)SC(=CC#CC=C2SC(C(=O)OC)=C(C(=O)OC)S2)S1		> 45.1	35.2	> 100	> 100		14.1	34.6	11.8	26.2									
CSc1cc(=O)n2c3ccccc3c3ccnc1c32		> 100	> 100	> 100	> 100	> 100	> 100		> 100	> 100									
COc1cc(C(c2c(O)c3ccccc3oc2=O)c2c(O)c3ccccc3oc2=O)cc(Br)c1O	33.6	36.4	26.2	38.7		53.1	31	31.2	40.3	36.1									
CC1=NN(c2nc(N)nc(-c3sccc3N)n2)C(C)(C)C1	> 100	> 100	> 100	> 100	> 100	> 100	> 100	> 100	> 100	> 100									
O=c1c(Cc2ccc(Cl)cc2)nnc2sc(-c3ccc(-c4ccc(F)c(Cl)c4)o3)nn12	> 100	> 100	> 100	> 100	> 100	> 100	> 100	> 100	> 100	> 100									
Cc1cc(S(=O)(=O)Nc2n[nH]c(-c3ccccn3)n2)c(S)cc1Cl	96	20.9	64.1	> 100	27.7	35.3	10.5	54.1		60.6									
Cc1ccc(C(=O)N/N=C(\N=Nc2ccccc2)c2ccc(N(C)C)cc2)cc1	> 100	> 100	> 100	> 100	> 100	> 100	> 100		> 100	> 100									
Cc1cc(C)c2c(=O)cc(-c3cccc(F)c3)[nH]c2n1	> 45.3	> 38.2	0.489	13.3	2.45		> 100	> 100	0.199	> 100									
